Values after ≈ are worked out from the molar mass of the structure shown. Read-outs that look alike come from different tables or passages of the source.
Key:
A. baumannii NCTC 13423 = assay: Antibacterial activity, pre-exposure; format: cell-based, Acinetobacter baumannii; details: for Average inhibition %, biofilms viability / Average inhibition %, planktonic cells viability / inhibition at 10 µM / inhibition at 15 µM / inhibition at 25 µM / inhibition at 50 µM: A. baumannii NCTC 13423, pre-exposure, ± SD; for inhibition at 10 µM / inhibition at 15 µM / inhibition at 25 µM / inhibition at 50 µM: Acinetobacter baumannii, NCTC13423
How it was run: (§1)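 Read-outs were turbidity and resazurin reduction for planktonic cells, and resazurin followed by crystal violet biomass (A595) for biofilms. Compounds were present from inoculation onward, with 18 h aerobic growth at 37 °C under shaking.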

S. aureus ATCC 25923 [1] = assay: Antibacterial activity, post-exposure on preformed 18-h-old biofilms; format: cell-based, Staphylococcus aureus; details: ± SD; for inhibition at 25 µM / inhibition at 50 µM / inhibition at 100 µM / inhibition at 200 µM: Staphylococcus aureus; for inhibition at 25 µM: ATCC25923, 25 µM; for inhibition at 50 µM: ATCC25923, 50 µM; for inhibition at 100 µM: ATCC25923, 100 µM; for inhibition at 200 µM: ATCC25923, 200 µM
How it was run: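 Biofilms grown 18 h without compound, medium then replaced and compound added for a further 24 h. Planktonic OD and resazurin (20 μM final) fluorescence (ex 560/em 590 nm) read; washed biofilms stained with 20 μM resazurin 30 min at 37 °C, then ethanol-fixed and crystal violet-stained, absorbance 595 nm.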

S. aureus ATCC 25923 [2] = assay: Antibacterial activity, pre-exposure (planktonic cells and biofilm formation); format: cell-based, Staphylococcus aureus; details: for MIC / inhibition at 5 µM / inhibition at 10 µM / inhibition at 15 µM / inhibition at 25 µM: Staphylococcus aureus, ATCC25923; for inhibition at 5 µM / inhibition at 10 µM / inhibition at 15 µM / inhibition at 25 µM / Average inhibition %, biofilms viability / Average inhibition %, planktonic cells viability: pre-exposure, ± SD
How it was run: as §1

P. aeruginosa ATCC 9027 = assay: Antibacterial activity, pre-exposure; format: cell-based, Pseudomonas aeruginosa; details: for Average inhibition %, biofilms viability / Average inhibition %, planktonic cells viability / inhibition at 50 µM / inhibition at 100 µM / inhibition at 150 µM / inhibition at 200 µM: P. aeruginosa ATCC 9027, pre-exposure, ± SD; for inhibition at 50 µM / inhibition at 100 µM / inhibition at 150 µM / inhibition at 200 µM: Pseudomonas aeruginosa, ATCC9027
How it was run: as §1

[3] = 10 µM, read-out: Average inhibition %, biofilms biomass
[4] = 10 µM, read-out: Average inhibition %, planktonic cells turbidity
[5] = 15 µM, read-out: Average inhibition %, biofilms biomass
[6] = 15 µM, read-out: Average inhibition %, planktonic cells turbidity
[7] = 25 µM, read-out: Average inhibition %, biofilms biomass
[8] = 25 µM, read-out: Average inhibition %, planktonic cells turbidity
[9] = 50 µM, read-out: Average inhibition %, biofilms biomass
[10] = 50 µM, read-out: Average inhibition %, planktonic cells turbidity
[11] = read-out: Average inhibition %, biofilms biomass
[12] = read-out: Average inhibition %, planktonic cells turbidity

Question: Which results are given for `CCCCCCCCCCc1ccc2nc(CCC(N)(CO)CO)ccc2c1` [Compound 81, 2-Amino-2-[2-(6-decylquinolin-2-yl)ethyl]propane-1,3-diol]?
Answer: Average inhibition %, biofilms viability (A. baumannii NCTC 13423; 10 µM): 0 ± 0%; Average inhibition %, planktonic cells viability (A. baumannii NCTC 13423; 10 µM): 7.5 ± 7.6%; Average inhibition %, biofilms viability (A. baumannii NCTC 13423; 15 µM): 0 ± 0%; Average inhibition %, planktonic cells viability (A. baumannii NCTC 13423; 15 µM): 5.8 ± 6.2%; Average inhibition %, biofilms viability (A. baumannii NCTC 13423; 25 µM): 0 ± 0%; Average inhibition %, planktonic cells viability (A. baumannii NCTC 13423; 25 µM): 2.6 ± 2.1%; Average inhibition %, biofilms viability (A. baumannii NCTC 13423; 50 µM): 0.8 ± 1.4%; Average inhibition %, planktonic cells viability (A. baumannii NCTC 13423; 50 µM): 2.6 ± 3.8%; inhibition at 10 µM (A. baumannii NCTC 13423; [3]): 0%; inhibition at 10 µM (A. baumannii NCTC 13423; [4]): 0.2 ± 0.5%; inhibition at 15 µM (A. baumannii NCTC 13423; [5]): 2.1 ± 3.6%; inhibition at 15 µM (A. baumannii NCTC 13423; [6]): 0%; inhibition at 25 µM (A. baumannii NCTC 13423; [7]): 3.6 ± 6.2%; inhibition at 25 µM (A. baumannii NCTC 13423; [8]): 0%; inhibition at 50 µM (A. baumannii NCTC 13423; [9]): 5.6 ± 5.9%; inhibition at 50 µM (A. baumannii NCTC 13423; [10]): 0.5 ± 0.9%; MIC A. baumannii NCTC 13423 (A. baumannii NCTC 13423; pre-exposure, Inactive = no activity up to 50 μM, > = some inhibition but no MIC reached): Inactive; Average inhibition %, biofilms viability (S. aureus ATCC 25923 [1]; 25 µM): 6.4 ± 8.2%; Average inhibition %, planktonic cells viability (S. aureus ATCC 25923 [1]; 25 µM): 8.8 ± 7.7%; Average inhibition %, biofilms viability (S. aureus ATCC 25923 [1]; 50 µM): 18.3 ± 16.6%; Average inhibition %, planktonic cells viability (S. aureus ATCC 25923 [1]; 50 µM): 6.9 ± 10.4%; Average inhibition %, biofilms viability (S. aureus ATCC 25923 [1]; 100 µM): 20.9 ± 18.1%; Average inhibition %, planktonic cells viability (S. aureus ATCC 25923 [1]; 100 µM): 28.8 ± 17.2%; Average inhibition %, biofilms viability (S. aureus ATCC 25923 [1]; 200 µM): 20.1 ± 16%; Average inhibition %, planktonic cells viability (S. aureus ATCC 25923 [1]; 200 µM): 7.8 ± 11.1%; inhibition at 25 µM (S. aureus ATCC 25923 [1]; [11]): 9.7 ± 8.6%; inhibition at 25 µM (S. aureus ATCC 25923 [1]; [12]): 22.7 ± 32.9%; inhibition at 50 µM (S. aureus ATCC 25923 [1]; [11]): 28.5 ± 12.5%; inhibition at 50 µM (S. aureus ATCC 25923 [1]; [12]): 10 ± 17.4%; inhibition at 100 µM (S. aureus ATCC 25923 [1]; [11]): 34.6 ± 8.2%; inhibition at 100 µM (S. aureus ATCC 25923 [1]; [12]): 19 ± 22.4%; inhibition at 200 µM (S. aureus ATCC 25923 [1]; [11]): 25 ± 11.6%; inhibition at 200 µM (S. aureus ATCC 25923 [1]; [12]): 11.2 ± 16.9%; MIC (S. aureus ATCC 25923 [2]; lowest concentration with no visible growth (>90% inhibition of turbidity and viability of planktonic cells), 18 h, read-out: MIC S. aureus ATCC 25923): 10 to 15 µM (≈ 3.87 to 5.8 µg/mL); inhibition at 5 µM (S. aureus ATCC 25923 [2]; 5 µM, read-out: Average inhibition %, biofilms biomass): 28.1 ± 33.9%; inhibition at 5 µM (S. aureus ATCC 25923 [2]; 5 µM, read-out: Average inhibition %, planktonic cells turbidity): 33.4 ± 30.9%; inhibition at 10 µM (S. aureus ATCC 25923 [2]; [3]): 66 ± 27.6%; inhibition at 10 µM (S. aureus ATCC 25923 [2]; [4]): 57.3 ± 36.4%; inhibition at 15 µM (S. aureus ATCC 25923 [2]; [5]): 98.4 ± 0.3%; inhibition at 15 µM (S. aureus ATCC 25923 [2]; [6]): 99.3 ± 0.2%; inhibition at 25 µM (S. aureus ATCC 25923 [2]; [7]): 97.3 ± 0.1%; inhibition at 25 µM (S. aureus ATCC 25923 [2]; [8]): 98.6 ± 0.3%; MIC (S. aureus ATCC 25923 [2]; read-out: MIC (S. aureus)): 10 to 15 µM (≈ 3.87 to 5.8 µg/mL); Average inhibition %, biofilms viability (S. aureus ATCC 25923 [2]; 5 µM): 28.3 ± 16.5%; Average inhibition %, planktonic cells viability (S. aureus ATCC 25923 [2]; 5 µM): 23.5 ± 26.1%; Average inhibition %, biofilms viability (S. aureus ATCC 25923 [2]; 10 µM): 64 ± 29.7%; Average inhibition %, planktonic cells viability (S. aureus ATCC 25923 [2]; 10 µM): 33.9 ± 57%; Average inhibition %, biofilms viability (S. aureus ATCC 25923 [2]; 15 µM): 99.1 ± 1%; Average inhibition %, planktonic cells viability (S. aureus ATCC 25923 [2]; 15 µM): 99.7 ± 0%; Average inhibition %, biofilms viability (S. aureus ATCC 25923 [2]; 25 µM): 99.1 ± 1.4%; Average inhibition %, planktonic cells viability (S. aureus ATCC 25923 [2]; 25 µM): 99.7 ± 0.1%; Average inhibition %, biofilms viability (P. aeruginosa ATCC 9027; 50 µM): 4.9 ± 5.2%; Average inhibition %, planktonic cells viability (P. aeruginosa ATCC 9027; 50 µM): 10.9 ± 9.5%; Average inhibition %, biofilms viability (P. aeruginosa ATCC 9027; 100 µM): 3.8 ± 4.9%; Average inhibition %, planktonic cells viability (P. aeruginosa ATCC 9027; 100 µM): 20.3 ± 12.9%; Average inhibition %, biofilms viability (P. aeruginosa ATCC 9027; 150 µM): 7.9 ± 11.7%; Average inhibition %, planktonic cells viability (P. aeruginosa ATCC 9027; 150 µM): 16.3 ± 5.7%; Average inhibition %, biofilms viability (P. aeruginosa ATCC 9027; 200 µM): 0.3 ± 0.5%; Average inhibition %, planktonic cells viability (P. aeruginosa ATCC 9027; 200 µM): 17 ± 16.2%; inhibition at 50 µM (P. aeruginosa ATCC 9027; [9]): 3.6 ± 4.6%; inhibition at 50 µM (P. aeruginosa ATCC 9027; [10]): 29.2 ± 5.8%; inhibition at 100 µM (P. aeruginosa ATCC 9027; 100 µM, read-out: Average inhibition %, biofilms biomass): 0%; inhibition at 100 µM (P. aeruginosa ATCC 9027; 100 µM, read-out: Average inhibition %, planktonic cells turbidity): 41.2 ± 11.2%; inhibition at 150 µM (P. aeruginosa ATCC 9027; 150 µM, read-out: Average inhibition %, biofilms biomass): 4 ± 7%; inhibition at 150 µM (P. aeruginosa ATCC 9027; 150 µM, read-out: Average inhibition %, planktonic cells turbidity): 38.2 ± 12.2%; inhibition at 200 µM (P. aeruginosa ATCC 9027; 200 µM, read-out: Average inhibition %, biofilms biomass): 0.7 ± 0.6%; inhibition at 200 µM (P. aeruginosa ATCC 9027; 200 µM, read-out: Average inhibition %, planktonic cells turbidity): 30.5 ± 8.3%; MIC P. aeruginosa ATCC 9027 (P. aeruginosa ATCC 9027; pre-exposure, Inactive = no activity up to 200 μM, > = some inhibition but no MIC reached): Inactive

From PMC8296573, “Synthesis and Biological Evaluation of Fingolimod Derivatives as Antibacterial Agents” (ACS Omega, 2021)
